Assay results: US20250114460A1, “NOVEL PLK1 DEGRADATION INDUCING COMPOUND” (UPPTHERA, INC., priority 2021, published 2025)
pIC50: −log10 of the molar value.

Tests used:
[1] = target: T1, PLK1 (Homo sapiens, UniProt P53350); experiment: Luciferase assay for PLK1 in HeLa LgBit (Plk1-HiBit KI) cell line; type: cell-based; settings: 300 nM compound, luminescence after 9 hours
T1 construct: endogenous in cells; host or cells: HeLa LgBit (Plk1-HiBit KI): HeLa stably expressing LgBit, with a CRISPR/Cas9 knock-in of HiBit at the endogenous PLK1 locus
T1 sequence (P53350 whole entry): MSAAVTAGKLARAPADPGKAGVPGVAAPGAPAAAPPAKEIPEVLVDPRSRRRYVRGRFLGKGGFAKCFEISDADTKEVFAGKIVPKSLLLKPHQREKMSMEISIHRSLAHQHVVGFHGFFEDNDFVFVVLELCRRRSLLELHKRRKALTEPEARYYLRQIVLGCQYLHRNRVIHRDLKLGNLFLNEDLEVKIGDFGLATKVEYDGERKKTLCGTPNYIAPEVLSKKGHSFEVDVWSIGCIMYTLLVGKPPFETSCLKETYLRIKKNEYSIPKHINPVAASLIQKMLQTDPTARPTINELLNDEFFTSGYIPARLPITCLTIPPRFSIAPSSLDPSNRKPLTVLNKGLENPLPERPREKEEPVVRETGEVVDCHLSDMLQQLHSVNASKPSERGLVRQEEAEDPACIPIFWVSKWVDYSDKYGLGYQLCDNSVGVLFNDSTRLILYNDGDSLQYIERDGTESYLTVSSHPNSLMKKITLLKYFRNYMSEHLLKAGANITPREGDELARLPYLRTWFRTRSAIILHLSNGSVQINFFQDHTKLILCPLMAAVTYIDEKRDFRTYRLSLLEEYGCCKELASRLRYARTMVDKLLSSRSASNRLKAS
How it was run: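 Luminescence, followed in real time after adding compound at 300 nM and Endurazine substrate, is reported relative to DMSO-treated wells. Cells are a HeLa LgBit line with a Plk1-HiBit knock-in, synchronized by 2 mM thymidine for 24 h, released, and cultured 18 h before treatment.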

[2] = test system: NCI-H526 cell line; experiment: Cell viability assay for H526 cell (EZ-Cytox); type: cell-based; settings: Homo sapiens, NCI-H526, 120 h; H526 cells, 5 days, 3000 nM to 0.46 nM
Experimental: (1) Culture of NCI-H526 Cell Line
(2) Treatment of Compounds of the Present Invention and Method of Cell Viability Assay
After treating the compound to each well to make the total volume of 200 μL, it was cultured in a CO2 incubator (Thermo Fisher Science, Cat. No. 4111) for 5 days.
The absorbance of the completely cultured sample was measured by setting the wavelength of a plate reader (BMG Labtech, CLARIOstar Plus) to […], and was measured after shaking for 3 minutes in a plate reader before measurement.
In Table 3, Activity represents IC50 value of each Exemplary Compound treatment group to H526 cell line (A: <30 nM, B: <50 nM, C: <100 nM, D: <200 nM, E: <400 nM).

Structure (SMILES) | Activity: ratio of the luminescense value of each Exemplary Compound treatment group to DMSO treatment group [1] | pIC50 [2]
COc1cc(C(=O)NC2CCN(CCOc3cccc4c3C(=O)N(C3CCC(=O)NC3=O)C4=O)CC2)c(F)cc1Nc1ncc2c(n1)N(C1CCCC1)CC(F)(F)C(=O)N2C (centres unmarked) [Compound 2, 4-((9-cyclopentyl-7,7-difluoro-5-methyl-6-oxo-6,7,8,9-tetrahydro-5H-pyrimido[4,5-b][1,4]diazepin-2-yl)amino)-N-(1-(2-((2-(2,6-dioxopiperidin-3-yl)-1,3-dioxoisoindolin-4-yl)oxy)ethyl)piperidin-4-yl)-2-fluoro-5-methoxybenzamide] | ++ (++<0.6) | > 6.70
COc1cc(C(=O)NC2CCN(CCOc3cccc4c3C(=O)N(C3CCC(=O)NC3=O)C4=O)CC2)c(Cl)cc1Nc1ncc2c(n1)N(C1CCCC1)CC(F)(F)C(=O)N2C (centres unmarked) [Compound 6, 2-chloro-4-((9-cyclopentyl-7,7-difluoro-5-methyl-6-oxo-6,7,8,9-tetrahydro-5H-pyrimido[4,5-b][1,4]diazepin-2-yl)amino)-N-(1-(2-((2-(2,6-dioxopiperidin-3-yl)-1,3-dioxoisoindolin-4-yl)oxy)ethyl)piperidin-4-yl)-5-methoxybenzamide] | +++ (+++: <0.3) | > 6.40
COc1cc(C(=O)NCCCOCCCOCCOc2cccc3c2CN(C2CCC(=O)NC2=O)C3=O)ccc1Nc1ncc2c(n1)N(C1CCCC1)CC(F)(F)C(=O)N2C (centres unmarked) [Compound 20, 4-((9-cyclopentyl-7,7-difluoro-5-methyl-6-oxo-6,7,8,9-tetrahydro-5H-pyrimido[4,5-b][1,4]diazepin-2-yl)amino)-N-(3-(3-(2-((2-(2,6-dioxopiperidin-3-yl)-1-oxoisoindolin-4-yl)oxy)ethoxy)propoxy)propyl)-3-methoxybenzamide] | ++ (++<0.6) | > 6.70
COc1cc(C(=O)N[C@H]2CC[C@H](N3CCN(CCOCCOc4cccc5c4CN(C4CCC(=O)NC4=O)C5=O)CC3)CC2)ccc1Nc1ncc2c(n1)N(C1CCCC1)CC(F)(F)C(=O)N2C (some centres unmarked) [Compound 198, 4-((9-cyclopentyl-7,7-difluoro-5-methyl-6-oxo-6,7,8,9-tetrahydro-5H-pyrimido[4,5-b][1,4]diazepin-2-yl)amino)-N-((1r,4r)-4-(4-(2-(2-((2-(2,6-dioxopiperidin-3-yl)-1-oxoisoindolin-4-yl)oxy)ethoxy)ethyl)piperazin-1-yl)cyclohexyl)-3-methoxybenzamide] | ++ (++<0.6) | 
COc1cc(C(=O)NC2CCN(C(=O)CCCCCOC3CN(c4cccc5c4C(=O)N(C4CCC(=O)NC4=O)C5=O)C3)CC2)ccc1Nc1ncc2c(n1)N(C1CCCC1)CC(F)(F)C(=O)N2C (centres unmarked) [Compound 199, 4-((9-cyclopentyl-7,7-difluoro-5-methyl-6-oxo-6,7,8,9-tetrahydro-5H-pyrimido[4,5-b][1,4]diazepin-2-yl)amino)-N-(1-(6-((1-(2-(2,6-dioxopiperidin-3-yl)-1,3-dioxoisoindolin-4-yl)azetidin-3-yl)oxy)hexanoyl)piperidin-4-yl)-3-methoxybenzamide] | + (+<0.7) | 
COc1cc(C(=O)NN2CCN(C3CN(c4cccc5c4C(=O)N(C4CCC(=O)NC4=O)C5=O)C3)CC2)ccc1Nc1ncc2c(n1)N(C1CCCC1)CC(F)(F)C(=O)N2C (centres unmarked) [Compound 200, 4-((9-cyclopentyl-7,7-difluoro-5-methyl-6-oxo-6,7,8,9-tetrahydro-5H-pyrimido[4,5-b][1,4]diazepin-2-yl)amino)-N-(4-(1-(2-(2,6-dioxopiperidin-3-yl)-1,3-dioxoisoindolin-4-yl)azetidin-3-yl)piperazin-1-yl)-3-methoxybenzamide] | + (+<0.7) | 
COc1cc(C(=O)NC2CCN(C(=O)CC3CN(c4cccc5c4C(=O)N(C4CCC(=O)NC4=O)C5=O)C3)CC2)c(F)cc1Nc1ncc2c(n1)N(C1CCCC1)CC(F)(F)C(=O)N2C (centres unmarked) [Compound 204, 4-((9-cyclopentyl-7,7-difluoro-5-methyl-6-oxo-6,7,8,9-tetrahydro-5H-pyrimido[4,5-b][1,4]diazepin-2-yl)amino)-N-(1-(2-(1-(2-(2,6-dioxopiperidin-3-yl)-1,3-dioxoisoindolin-4-yl)azetidin-3-yl)acetyl)piperidin-4-yl)-2-fluoro-5-methoxybenzamide] | + (+<0.7) | 
COc1cc(C(=O)NC2CCN(C(=O)[C@@H]3C[C@H](Nc4cccc5c4C(=O)N(C4CCC(=O)NC4=O)C5=O)CN3)CC2)c(F)cc1Nc1ncc2c(n1)N(C1CCCC1)CC(F)(F)C(=O)N2C (stereo partly drawn) [Compound 206, 4-((9-cyclopentyl-7,7-difluoro-5-methyl-6-oxo-6,7,8,9-tetrahydro-5H-pyrimido[4,5-b][1,4]diazepin-2-yl)amino)-N-(1-((2S,4S)-4-((2-(2,6-dioxopiperidin-3-yl)-1,3-dioxoisoindolin-4-yl)amino)pyrrolidine-2-carbonyl)piperidin-4-yl)-2-fluoro-5-methoxybenzamide] | + (+<0.7) | 
COc1cc(C(=O)NN2CCC(N3CC4(CCN(c5ccc6c(c5)C(=O)N(C5CCC(=O)NC5=O)C6=O)CC4)C3)CC2)ccc1Nc1ncc2c(n1)N(C(C)C)CC(F)(F)C(=O)N2C (centres unmarked) [Compound 214, 4-((7,7-difluoro-9-isopropyl-5-methyl-6-oxo-6,7,8,9-tetrahydro-5H-pyrimido[4,5-b][1,4]diazepin-2-yl)amino)-N-(4-(7-(2-(2,6-dioxopiperidin-3-yl)-1,3-dioxoisoindolin-5-yl)-2,7-diazaspiro[3.5]nonan-2-yl)piperidin-1-yl)-3-methoxybenzamide] | + (+<0.7) | 
COc1cc(C(=O)NCCOCCNc2cccc3c2C(=O)N(C2CCC(=O)NC2=O)C3=O)c(N2CCN(C)CC2)cc1Nc1ncc2c(n1)N(C1CCCC1)CC(F)(F)C(=O)N2C (centres unmarked) [Compound 221, 4-((9-cyclopentyl-7,7-difluoro-5-methyl-6-oxo-6,7,8,9-tetrahydro-5H-pyrimido[4,5-b][1,4]diazepin-2-yl)amino)-N-(2-(2-((2-(2,6-dioxopiperidin-3-yl)-1,3-dioxoisoindolin-4-yl)amino)ethoxy)ethyl)-5-methoxy-2-(4-methylpiperazin-1-yl)benzamide] | + (+<0.7) | 
COc1cc(C(=O)NCCOCCOCCNc2cccc3c2C(=O)N(C2CCC(=O)NC2=O)C3=O)c(N2CCN(C)CC2)cc1Nc1ncc2c(n1)N(C1CCCC1)CC(F)(F)C(=O)N2C (centres unmarked) [Compound 222, 4-((9-cyclopentyl-7,7-difluoro-5-methyl-6-oxo-6,7,8,9-tetrahydro-5H-pyrimido[4,5-b][1,4]diazepin-2-yl)amino)-N-(2-(2-(2-((2-(2,6-dioxopiperidin-3-yl)-1,3-dioxoisoindolin-4-yl)amino)ethoxy)ethoxy)ethyl)-5-methoxy-2-(4-methylpiperazin-1-yl)benzamide] | ++ (++<0.6) | 
COc1cc(C(=O)NCCOCCOCCOCCNc2cccc3c2C(=O)N(C2CCC(=O)NC2=O)C3=O)c(N2CCN(C)CC2)cc1Nc1ncc2c(n1)N(C1CCCC1)CC(F)(F)C(=O)N2C (centres unmarked) [Compound 223, 4-((9-cyclopentyl-7,7-difluoro-5-methyl-6-oxo-6,7,8,9-tetrahydro-5H-pyrimido[4,5-b][1,4]diazepin-2-yl)amino)-N-(2-(2-(2-(2-((2-(2,6-dioxopiperidin-3-yl)-1,3-dioxoisoindolin-4-yl)amino)ethoxy)ethoxy)ethoxy)ethyl)-5-methoxy-2-(4-methylpiperazin-1-yl)benzamide] | ++ (++<0.6) | 
COc1cc(C(=O)NCCOCCOCCOCCOCCNc2cccc3c2C(=O)N(C2CCC(=O)NC2=O)C3=O)c(N2CCN(C)CC2)cc1Nc1ncc2c(n1)N(C1CCCC1)CC(F)(F)C(=O)N2C (centres unmarked) [Compound 224, 4-((9-cyclopentyl-7,7-difluoro-5-methyl-6-oxo-6,7,8,9-tetrahydro-5H-pyrimido[4,5-b][1,4]diazepin-2-yl)amino)-N-(14-((2-(2,6-dioxopiperidin-3-yl)-1,3-dioxoisoindolin-4-yl)amino)-3,6,9,12-tetraoxatetradecyl)-5-methoxy-2-(4-methylpiperazin-1-yl)benzamide] | ++ (++<0.6) | 
COc1cc(C(=O)NCCOCCOCCOCCOCCOCCNc2cccc3c2C(=O)N(C2CCC(=O)NC2=O)C3=O)c(N2CCN(C)CC2)cc1Nc1ncc2c(n1)N(C1CCCC1)CC(F)(F)C(=O)N2C (centres unmarked) [Compound 225, 4-((9-cyclopentyl-7,7-difluoro-5-methyl-6-oxo-6,7,8,9-tetrahydro-5H-pyrimido[4,5-b][1,4]diazepin-2-yl)amino)-N-(17-((2-(2,6-dioxopiperidin-3-yl)-1,3-dioxoisoindolin-4-yl)amino)-3,6,9,12,15-pentaoxaheptadecyl)-5-methoxy-2-(4-methylpiperazin-1-yl)benzamide] | ++ (++<0.6) | 
